Data reported in PMC5557489, “Computational and experimental analysis of short peptide motifs for enzyme inhibition” (PLoS ONE, 2017).
pIC50: −log10 of the molar value. Where two headings read alike, the source gives them in different places. Ends that are not written are not given here.

Target: T1, β-galactosidase (β-Gal) (Escherichia coli, UniProt P00722)
T1 construct: purchased Sigma (St. Louis, MO)
Test: biochemical
Assay type: biochemical
Experimental: Solution-based enzyme assays were performed on SpectraMax M5 96 well plate readers (Molecular Device, Sunnyvale, CA) as described previously.[13] Briefly, peptides were first incubated with enzyme for 20 minutes, then the substrate solution was added into the wells to measure the enzyme activity, including at least three replicates per peptide. The β-gal catalyzed hydrolysis of RBG was fluorescently monitored at 590 nm (resorufin) with the excitation at 540 nm. The velocity of the reaction was determined by the initial velocity of the linear reaction. The IC50 of each inhibitor was determined by fitting the concentration vs. inhibition curve to the function ‘Fit LogIC50’ as defined in the program GraphPad Prism 7 using the fitting equation “Y = Bottom+(Top-Bottom)/(1+10^(X-LogIC50))”.
The enzyme inhibition was also quantitatively characterized using the inhibition percentage that was calculated using the following equation: Inhibition Percentage = (Activityuninhibited− Activityinhibited)/ Activityuninhibited× 100% […]
Fluorescein di-β-D-galactopyranoside (FDG), resorufin β-D-galactopyranoside (RBG) and Alexa Fluor 647 (Alexa 647) were purchased from Invitrogen (Eugene, OR). Phenylethyl β-D-thiogalactoside (PETG), β-galactosidase (β-Gal), phosphate buffered saline (PBS) and tris buffered saline (TBS) were obtained from Sigma (St. Louis, MO). A 4 mg/mL stock solution of β-Gal was prepared in 10 mM potassium phosphate buffer with 0.1 mM MgCl2 at pH 7.4. A 2 mg/mL stock solution of peptide was first prepared in pure water, and then diluted in phosphate buffer to the desired concentration. Custom peptides were purchased from Sigma.

T1 sequence (P00722 2-1024): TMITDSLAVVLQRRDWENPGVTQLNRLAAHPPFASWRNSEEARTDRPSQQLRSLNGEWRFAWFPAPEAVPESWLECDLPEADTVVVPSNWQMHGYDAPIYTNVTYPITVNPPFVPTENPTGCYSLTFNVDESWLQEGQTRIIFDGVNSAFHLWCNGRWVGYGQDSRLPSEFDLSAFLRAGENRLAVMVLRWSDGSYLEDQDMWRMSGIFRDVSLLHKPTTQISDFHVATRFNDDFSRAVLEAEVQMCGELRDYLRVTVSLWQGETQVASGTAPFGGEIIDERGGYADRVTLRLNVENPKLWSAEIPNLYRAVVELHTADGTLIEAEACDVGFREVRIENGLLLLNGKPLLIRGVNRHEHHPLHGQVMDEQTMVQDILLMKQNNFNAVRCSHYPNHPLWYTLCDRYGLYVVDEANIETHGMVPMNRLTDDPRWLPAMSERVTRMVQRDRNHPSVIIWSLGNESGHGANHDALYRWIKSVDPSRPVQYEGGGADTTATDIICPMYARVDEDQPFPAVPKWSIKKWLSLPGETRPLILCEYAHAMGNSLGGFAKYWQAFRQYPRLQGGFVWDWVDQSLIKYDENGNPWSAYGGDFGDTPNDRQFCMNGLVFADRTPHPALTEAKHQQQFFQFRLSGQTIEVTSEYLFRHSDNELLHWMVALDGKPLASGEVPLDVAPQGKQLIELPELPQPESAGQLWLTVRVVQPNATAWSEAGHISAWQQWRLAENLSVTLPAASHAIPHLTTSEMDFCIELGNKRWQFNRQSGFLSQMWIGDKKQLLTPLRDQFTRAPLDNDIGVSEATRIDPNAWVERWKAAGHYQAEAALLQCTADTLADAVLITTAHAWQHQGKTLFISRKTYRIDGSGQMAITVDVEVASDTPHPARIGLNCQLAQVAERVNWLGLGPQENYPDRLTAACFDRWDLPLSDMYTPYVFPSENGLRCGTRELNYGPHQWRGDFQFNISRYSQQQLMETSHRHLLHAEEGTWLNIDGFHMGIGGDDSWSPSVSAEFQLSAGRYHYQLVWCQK

Row | Compound | pIC50 | also measured
1 | OC[C@H]1O[C@@H](SCCc2ccccc2)[C@H](O)[C@@H](O)[C@@H]1O [PETG, phenylethyl β-D-thiogalactoside, reference compound] |  | pIC50 (Fig 1, 100 μM RBG, β-Gal 150 μg/L, 25°C, three replicates, lead peptides previously selected from microarray [13], read-out: IC50 of peptide inhibition of β-Gal): ~4.46
2 | FKRYKRWGSC [nPEP-1] | ~5.40 | 
3 | FKRYRRWGSC [nPEP-1-45] | ~5.60 | 
4 | KKQGYYYKLGSC [shorter C-terminus motif of PEP-2 from truncation analysis] |  | normalized inhibition of β-Gal, truncation scan of PEP-2 (Fig 3B, normalized to the inhibition percentage value of PEP-2 at 50 μM, three replicates): inhibited β-Gal
5 | PASMFSYFKKQGYYYKLGSC [PEP-2] | ~4.89 | 
6 | RVFKRYKRWLHVSRYYFGSC [PEP-1] | ~5.80 | 
